The values that follow come from US20170001956A1, “HYDROCARBYL CARBOXYBETAINE AND METHOD FOR PREVENTING HOFMANN ELIMINATION IN ALKALINE ENVIRONMENT” (NATIONAL CHUNG CHENG UNIVERSITY, priority 2015, published 2017).

Molecules are shown by their SMILES.

This experiment has as its system Staphylococcus aureus. The following applies: treated with 1M NaOH; compared to CB treated with 1M NaOH (CB-NaOH); FIG. 7.

On to `CC(C[N+](C)(C)CCSSCC[N+](C)(C)CC(C)C(=O)O)C(=O)O` (stereo not drawn) [α-mCB, carboxy-alpha-methyl-betaine disulfide], for which the “adsorption resistance against the biofouling of S. aureus” value is on record as “better adsorption resistance”.
